{"source": "patent US20230241256A1", "about": "“NON-INTUITIVE COMBINATION OF DRUG DELIVERY CARRIERS OF THE SAME DRUG FOR SYNERGISTIC GROWTH DELAY OF SOLID TUMORS” (The Johns Hopkins University, priority 2020, published 2023)", "key": {"[1]": {"tested_on": "Trastuzumab-sensitive BT474 breast cancer cells", "assay": "Clonogenic (colony) survival, BT474", "type": "cell-based, human", "conditions": "6 hour incubation at 37° C.; pH 7.4 or 6.0; monolayers", "protocol": "(§1) Cold conditions of liposomes and the antibody are indicated at zero radioactivity concentration. Error bars correspond to standard deviations of repeated measurements (4-6 samples per radioactivity concentration);\n(§2) After incubation for 6 hours of cell monolayers with varying concentrations of radioactivity, the cells were washed and were plated in dishes to grow until formation of colonies, as described in detail in Prasad et al., 2021."}, "[2]": {"tested_on": "Trastuzumab-resistant BT474-R breast cancer cells", "assay": "Clonogenic (colony) survival, BT474-R", "type": "cell-based, human", "conditions": "6 hour incubation at 37° C.; pH 7.4 or 6.0; monolayers", "protocol": "as §1, §2"}}, "data": [{"smiles": "O=C([O-])CN1CCN(CC(=O)[O-])CCN(CC(=O)[O-])CCN(CC(=O)[O-])CC1.[225Ac+3]", "note": "[free [^225Ac]Ac-DOTA]", "values": [{"measurement": "colony survival response", "setting": "[1]", "value": "same sensitivity"}, {"measurement": "colony survival response", "setting": "[2]", "value": "same sensitivity"}]}]}
